Several values for one entry are separate records, joined by “and”; a condition that tells them apart may be missing. Equal values may be shown once.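 48-hour exposure; five concentrations; linearly interpolated endpoints. GI50 is the concentration that inhibits growth by half. Definition used: TGI = concentration required for complete inhibition of growth.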
What was measured:
Assay in all cases: NCI-60 cell line screen, 48 h
SK-MEL-28 melanoma = system: SK-MEL-28 melanoma
MCF7 breast = system: MCF7 breast
EKVX NSCLC = system: EKVX NSCLC
SF-295 CNS = system: SF-295 CNS
SF-539 CNS = system: SF-539 CNS
OVCAR-4 ovarian = system: OVCAR-4 ovarian
786-0 renal = system: 786-0 renal
UACC-257 melanoma = system: UACC-257 melanoma
SN12C renal = system: SN12C renal
RPMI-8226 leukemia = system: RPMI-8226 leukemia

Row | SMILES | TGI (SK-MEL-28 melanoma) | TGI (MCF7 breast) | TGI (EKVX NSCLC) | TGI (SF-295 CNS) | TGI (SF-539 CNS) | TGI (OVCAR-4 ovarian) | TGI (786-0 renal) | TGI (UACC-257 melanoma) | TGI (SN12C renal) | TGI (RPMI-8226 leukemia) | GI50 (SK-MEL-28 melanoma) | GI50 (MCF7 breast) | GI50 (EKVX NSCLC) | GI50 (SF-295 CNS) | GI50 (SF-539 CNS) | GI50 (OVCAR-4 ovarian) | GI50 (786-0 renal) | GI50 (SN12C renal) | GI50 (RPMI-8226 leukemia) | GI50 (UACC-257 melanoma)
1 | COC1=CC(=O)c2c(O)c3c(c(O)c2C1=O)OC1(Oc2c(cc4cc(C)oc(=O)c4c2O)CC1O)C3O (stereo not given) | > 100 µM | > 100 µM | 57 µM | > 100 µM | > 100 µM | 67.5 µM | > 100 µM | > 100 µM | 49.3 µM | > 100 µM |  |  |  |  |  |  |  |  |  | 
2 | CCCCCCCCCCCCCCCCSS(C)(=O)=O | 25.4 µM | > 100 µM | > 100 µM | > 100 µM | > 56.4 µM | 54.7 µM | 27 µM | > 93.5 µM | > 69.5 µM | 14.1 µM |  |  |  |  |  |  |  |  |  | 
3 | COc1cc(/C=C/C(=O)c2ccc(F)cc2)ccc1OCCCCOc1cc2c(cc1OC)C(=O)N1CCCC1C=N2 (stereo not given) | > 100 µM | 6.12 µM | > 34.9 µM |  | 1.62 µM | > 23.9 µM | 7.74 µM |  | 15.9 µM | 1.31 µM | 15.3 µM | 0.318 µM | 4.05 µM | 0.707 µM | 0.641 µM | 2.99 µM | 0.989 µM | 1.68 µM | 0.218 µM | 
4 | OCCNC(=S)Nc1ccc(-c2nc(N3C[C@H]4CC[C@@H](C3)O4)c3cccn3n2)cc1 | 0.499 µM | 11.4 µM | 6.59 µM | 0.265 µM | 0.767 µM | 0.63 µM | 12.8 µM | 0.467 µM | 16.9 µM | 1.47 µM | 0.028 µM | 0.0231 µM | 0.0629 µM | 0.0328 µM | 0.108 µM | 0.0389 µM | 0.0677 µM | 0.0617 µM | 0.0371 µM | 0.0354 µM
5 | O=C(CC(O)c1cccnc1)CC(O)c1cccnc1 (stereo not given) | 44.2 µM | 20 µM | 43.8 µM | 30.7 µM | 53.8 µM | 40.9 µM | 39.2 µM | 36.1 µM | 38.8 µM | > 100 µM |  |  |  |  |  |  |  |  |  | 
6 | C[C@@]1([C@H](OC(=O)c2cccc3ccccc23)C(N)=O)CO1 | 15.2 µM | > 100 µM | 15.7 µM | 9.28 µM | 2.33 µM | > 76.6 µM | 14.6 µM | > 49 µM | 3.95 µM | 9.04 µM | 3.08 µM | 1.24 µM | 4.53 µM | 0.427 µM | 0.642 µM | 4.66 µM | 1.84 µM | 0.36 µM | 0.668 µM | 4.65 µM
7 | C[C@]12CC/C(=N\O)C[C@@H]1CC[C@@H]1[C@@H]2CC[C@]2(C)/C(=N/O)CC[C@@H]12 | > 100 µM | 98.8 µM | > 100 µM | > 100 µM | > 100 µM | > 100 µM | 72.3 µM | > 100 µM | > 100 µM | 52 µM | > 100 µM | 26.1 µM | 44.6 µM | 38.2 µM | 37.9 µM | 56.8 µM | 26.7 µM | 47.1 µM | 15.9 µM | 37.6 µM
8 | CC(C)(C)n1nc(C2CC2)cc1NC(=O)Nc1ccc(Cl)cc1 | > 100 µM | > 100 µM | > 100 µM | > 100 µM | > 100 µM | > 100 µM | > 100 µM | > 100 µM | > 100 µM | > 100 µM |  |  |  |  |  |  |  |  |  | 
9 | Cc1ccccc1NC(=O)N/C(N)=N/c1nc(C)c(C)s1 | > 100 µM | > 100 µM | > 100 µM | > 100 µM | 4.38 µM | > 100 µM | > 100 µM | > 100 µM | > 100 µM | > 100 µM | 23.7 µM | 0.142 µM | 0.542 µM | 0.164 µM | 0.254 µM | 48 µM | 0.652 µM | 1.23 µM | 0.39 µM | > 100 µM
10 | COc1ccc(Nc2[nH]n(C3=Nc4ccccc4Sc4ccccc43)c(=O)c2C#N)cc1 | > 100 µM | 11.7 µM | > 100 µM | 4.34 µM | 40.9 µM | > 100 µM | 22.3 µM | 7.03 µM | > 100 µM | > 100 µM | 3.87 µM | 2.18 µM | 0.781 µM | 0.56 µM | 3.37 µM | 0.803 µM | 2.67 µM | 2.36 µM | 1.59 µM | 1.13 µM
11 | COc1ccc(-c2cnc(SCC(=O)c3c(C)n(C)n(-c4ccccc4)c3=O)n2-c2ccc(OC)cc2)cc1 | > 50 µM | > 50 µM | > 50 µM | > 50 µM | > 50 µM |  | > 50 µM | > 50 µM | > 50 µM | > 50 µM | > 50 µM | 35.3 µM | 29.7 µM | > 50 µM | > 50 µM |  | > 50 µM | > 50 µM | 6.87 µM | > 50 µM
12 | CC(C)C[C@H](NC(=O)[C@H](Cc1ccccc1)NC(=O)c1cnccn1)B(O)O |  |  | 2.06 µM and 0.417 µM and 2.33 µM |  | < 0.01 µM and 0.00271 µM | 0.179 µM | 0.381 µM and 0.0967 µM and 0.411 µM | 0.00349 µM |  |  | 0.00104 µM | 0.0013 µM | < 0.0175 µM and 0.00419 µM | 0.00215 µM | 0.00119 µM | < 0.0113 µM and 0.00315 µM | 0.00245 µM | < 0.0114 µM and 0.00194 µM | 0.00085 µM | 0.00107 µM
13 | O=C(/C=C/c1ccccc1)Nc1ncc(Cc2ccccc2)s1 | > 100 µM | > 100 µM | > 100 µM | 1.96 µM | 0.732 µM | 6.54 µM | 10.7 µM | > 100 µM | > 52 µM | > 28 µM | 1.7 µM | 0.139 µM | 0.44 µM | 0.202 µM | 0.206 µM | 1.38 µM | 0.598 µM | 0.597 µM | 0.309 µM | 10.7 µM
14 | CS(=O)(=O)OCCCCOS(C)(=O)=O | 232 µM and > 1000 µM | 250 µM and > 1000 µM | > 1000 µM | 237 µM and > 1000 µM | 250 µM and > 1000 µM | 223 µM and > 1000 µM | 250 µM and > 1000 µM | 230 µM and > 1000 µM | 250 µM and > 1000 µM | 250 µM and > 1000 µM | 980 µM | 534 µM | > 1000 µM | 423 µM | 437 µM | > 1000 µM | 539 µM | 623 µM | 95.9 µM | 571 µM

— PubChem BioAssay (NCI)
